From PMC9666555, “Genuine selective caspase-2 inhibition with new irreversible small peptidomimetics” (Cell Death & Disease, 2022)
“And” between values parts separate entries of the source, which are not always exact repeats. Equal entries are not always repeated. Where two headings read alike, the source gives them in different places. Residues, ends and D or L forms follow the SMILES beside them. *: point of attachment. X1 = O=C(O)CC(N*)C(=O)COc1c(F)cccc1F; Quinaldoyl = O=C(c1ccc2ccccc2n1)*; Cbz = O=C(OCc1ccccc1)*; CH2F = FC*

Experiments:
[1] = target: T1, human active recombinant caspase-2 (Homo sapiens, UniProt P42575); experiment: In vitro caspase activity and inhibition assay (IC50), Caspase-2; format: biochemical
T1 sequence (P42575 170-325 limits assumed): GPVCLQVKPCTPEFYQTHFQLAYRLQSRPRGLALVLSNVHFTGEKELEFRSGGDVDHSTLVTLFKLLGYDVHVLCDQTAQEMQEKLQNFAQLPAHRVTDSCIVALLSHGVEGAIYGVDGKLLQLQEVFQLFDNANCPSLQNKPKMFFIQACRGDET
T1 sequence (P42575 348-452 limits assumed): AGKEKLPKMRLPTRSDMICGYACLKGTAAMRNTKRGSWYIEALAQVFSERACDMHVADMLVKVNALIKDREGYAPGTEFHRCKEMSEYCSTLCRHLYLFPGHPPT
Description: Stock solutions were stored at −80 °C.

[2] = target: T2, recombinant human Casp3 (Homo sapiens, UniProt P42574); experiment: Enzyme mechanistic studies (Ki, k3, k3/KI), Caspase-3; format: biochemical
T2 sequence (P42574 29-175 limits assumed): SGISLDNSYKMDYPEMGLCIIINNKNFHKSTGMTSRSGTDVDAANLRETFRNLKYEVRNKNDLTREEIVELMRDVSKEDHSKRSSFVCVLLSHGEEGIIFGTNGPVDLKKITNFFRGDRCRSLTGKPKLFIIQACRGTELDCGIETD
T2 sequence (P42574 176-277 limits assumed): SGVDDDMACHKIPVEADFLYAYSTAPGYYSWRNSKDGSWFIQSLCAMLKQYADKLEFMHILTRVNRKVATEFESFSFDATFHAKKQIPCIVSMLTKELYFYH
Description: (§1) For reversible inhibitors, the mechanisms of inhibition were determined by varying substrate and inhibitor concentrations and using Lineweaver−Burk representations to determine the inhibition constants Ki of competitive inhibitors (Ki = [E][I]/[EI]). For suicide inhibitors, inactivation can be represented by the minimum kinetic scheme (Eq. 2), where E and I are the free forms of enzyme and inhibitor, E * I a kinetic chimera of the Michaelis complex and E − I the covalent complex (inactivated enzyme).2 E+I⇄KIE*I→k3E−I
(§2) KI and k3 are the kinetic constants characterizing the inactivation process and the k3/KI ratio is an index of the inhibitory potency. The first-order rate constant, k3, and the apparent dissociation constant, KI, were determined for Caspase-2 and -3 using the progress curve method. Briefly, the enzyme activities were measured continuously for 120 min. To determine the kinetic parameters, progress curves were obtained at several inhibition concentrations using fixed substrate concentration. The product released for each inhibitor concentration was plotted versus the time following Eq. 3 where the constant π depended on [I]’, a modified inhibitor concentration due to substrate competition, according to Eq. 4. [I]’ is defined by Eq. 5, where KM was Michaelis constant for the enzymatic hydrolysis of the appropriate fluorogenic substrate. The ratio k3/KI was obtained by fitting the experimental data to the equations (F.U., fluorescence unit):3 F.U.=∫0tvidt+F.U0−vo×e^−π×t/π+F.U.0 4 π=k3×[I]^′/KI+[I]^′ 5 [I]^′=[I]/1+S/KM
Linear and nonlinear regression fits of the experimental data to the equations were performed with KaleidaGraph software.

[3] = test system: HeLa cells; experiment: Vincristine-induced HeLa cell death (propidium iodide, flow cytometry); format: cell-based, human; details: 1 h pretreatment, 20 nM vincristine 44 h; for effect against vincristine-induced cell death: indicated doses; for inhibition of vincristine-induced cell death: inhibitor 30 µM
Description: HeLa cells (obtained from ATCC) were cultured in Dulbecco’s Modified Eagle Medium (DMEM, High Glucose, GlutaMAX™, Pyruvate) supplemented with antibiotics and 10% fetal calf serum (FCS) (Gibco, Life Technologies) and maintained in T75 Flasks at 1 × 10^6 cells per flask. Twenty-four hours before treatments, HeLa cells were transferred to 6-well plates (8 × 10^4 cells/well). The lymphoblastoid cell line Molt4cl8 was a gift from Dr. Bernard Krust (Inserm, University Paris 5) and was cultured in RPMI 1640 Glutamax medium supplemented with Hepes, antibiotics, and 10% FCS. HEK293 cells were obtained from ATCC (CRL-1573) and cultured in DMEM with Glutamax and 25 mM glucose (Life Technologies) supplemented with 10% FCS and antibiotics. For cell death induction, the following agents were added to cell cultures: Vincristine (Sigma) and Panobistat (LBH589; Selleck). Cell death was analyzed using fluorescence microscopy (Axio-observer Z1, Zeiss; equipped with CCD camera CoolsnapHQ2, Ropert Scientific) and cytofluorometry (MACSQuant® VYB; Miltenyi Biotec, Bergisch Gladbach, Germany) after labeling with propidium iodide (1 µg/mL; 10 min; 37 °C; Life Technologies) and Hoechst 33342 (1 µg/mL; 5 min; RT; Sigma).
Fig. 2 q33 and h33 are protective against the cytocidal effect of Vincristine. a Vincristine induces HeLa cell death. Cells were incubated for 44 h at 37 °C with 20 nM Vincristine (VCR), then incubated with propidium iodide at 2 μg/mL for 10 min and analyzed by flow cytometry to quantify plasma membrane permeabilization. Histograms show fluorescence intensity detected by flow cytometry (one representative experiment) in the presence (VCR) or Absence (Co.) of Vincristine. % of propidium iodide-positive cells are indicated for both conditions. b Dose–response of Vincristine-induced cell death. HeLa cells were incubated and treated as in (a) with the indicated doses of Vincristine (VCR) and analyzed by flow cytometry. […] Representative fluorescence microscopy micrographs of cells treated for 44 h with 20 nM vincristine (VCR) or not (Co.) and stained with Hoechst 33342. Vincristine induces progressive nuclear changes with first condensed nuclei (arrows) and then apoptotic bodies (dashed arrow). d Broad-spectrum irreversible caspase inhibitors prevent vincristine-induced cell death. HeLa cells were pretreated for 1 hr with the indicated broad-spectrum irreversible caspases inhibitors (z-VAD(OMe)-fmk at 30 μM, Q-VD-OPh 30 μM, Emricasan 10 μM, or the negative control Q-VE-OPh 30 μM), then treated with vincristine as in panel (a), and analyzed by flow cytometry. Histograms show the mean ± SD of 3 independent experiments (***p value < 0.001). e Effect of the reversible Caspase-2 inhibitors q33 and h33 against vincristine-induced cell death. HeLa cells were pretreated for 1 h with the indicated doses of q33 or h33, then treated with vincristine as in panel a, and analyzed by flow cytometry. Histograms show the mean ± SD of three independent experiments (*p value < 0.1). TEXT PRINTED IN THE PICTURE: (a) VCR: 39,5 % DOUBTS OF THE COPYIST ABOUT THIS PICTURE: Panel a: the picture prints no measure beside "39,5 %" and "4.1%". I assigned 39,5 % to VCR only because it stands by the grey VCR peak. / Panel a: "4.1%" seems to belong to the untreated control (Co.). That is not a substance, so it is left out.
Fig. 5 LJ2 inhibits cell death induced by microtubule destabilization and hydroxamic acid-based deacetylase (HDAC) inhibition. a Effect of the irreversible Caspase-2 inhibitors LJ2 against vincristine-induced cell death. HeLa cells were pretreated for 1 h with the indicated doses of LJ2, Q-VD-OPh, or Q-LETD-OPh, then treated with vincristine (VCR) as in Fig. 2, then incubated with propidium iodide at 2 μg/mL for 10 min and analyzed by flow cytometry. Histogram data are mean ± SD (n = 3, *p value < 0.01). b Effect of Caspases-inhibitors against Panobistat (LBH589)-induced cell death. […]

[4] = target: T3, human active recombinant Caspase-3 (Homo sapiens, UniProt P42574); experiment: In vitro caspase activity and inhibition assay (IC50), Caspase-3; format: biochemical
T3 sequence (P42574 29-175 limits assumed): T2 sequence (P42574 29-175 limits assumed)
T3 sequence (P42574 176-277 limits assumed): T2 sequence (P42574 176-277 limits assumed)
Description: The human active recombinant Caspase-3 (#707-C3) was purchased from R&D Systems (Minneapolis, USA). […] Stock solutions were stored at −80 °C. […] Caspase inhibitors were solubilized in DMSO at 10 mM and stored at −80 °C.
Initial velocity (V0) was determined from the linear portion of the progress curve. The composition of the activity buffer was: 20 mM HEPES, pH 7.4; 0.1% CHAPS, 5 mM DTT, 2 mM EDTA; 800 mM sodium succinate for Caspase-2 (0.2 nM) with 25 µM of Ac-VDVAD-7-amino-3-methylcoumarin (AMC) and 20 mM HEPES, pH 7.4; 0.1% CHAPS, 5 mM DTT, 2 mM EDTA; supplemented with 1 mg/mL of stabilizing agent bovine serum albumin (BSA) for Caspase-3 (0.1 nM) with 10 μM of Ac-DEVD-AMC. Compounds (0.001–100 µM) were tested in duplicate for each inhibitor concentration to detect their inhibitory potential. Enzymes and compounds were incubated for 30 min before initiating enzymatic reaction by adding substrate. Initial rates determined in control experiments (V0) were considered as 100% of the caspase activity; initial rates that were below 100% in the presence of tested compound (Vi) were considered as inhibition. The inhibitory activity of compounds was expressed as IC50 (Inhibitor concentration giving 50% inhibition). The values of IC50 were calculated by fitting the experimental data using Mars data Analysis 2.0 and KaleidaGraph software.1 %Inhibition=1001−Vi/V0=100I0/IC50+I0

[5] = target: T4, recombinant human Casp2 (Homo sapiens, UniProt P42575); experiment: Enzyme mechanistic studies (Ki, k3, k3/KI), Caspase-2; format: biochemical; details: for Ki ratio (Casp3/Casp2): reversible inhibitors
T4 sequence (P42575 170-325 limits assumed): T1 sequence (P42575 170-325 limits assumed)
T4 sequence (P42575 348-452 limits assumed): T1 sequence (P42575 348-452 limits assumed)
Description: as §1, §2
Linear and nonlinear regression fits of the experimental data to the equations were performed with KaleidaGraph software. The experimental conditions were [Caspase-2]0 = 0.2 nM, [Ac-VDVAD-AMC]0 = 25 µM and [Caspase-3]0 = 0.1 nM, [Ac-DEVD-AMC]0 = 10 µM; [I]0 = 0–100 µM.

[6] = test system: Swiss mice hippocampal neurons; experiment: Aβ oligomer-induced dendritic spine loss in hippocampal primary cultures; format: cell-based, mouse; details: 100 nM, 6 h of exposure
Description: For the monoculture model (MBBT4 devices), 20 × 10^3 hippocampal neurons were seeded in each chamber. For the compartmentalized coculture model (neuronal diode in MBBT5 devices), 40 × 10^3 cortical cells and 15 × 10^3 hippocampal cells were seeded in each input chamber and output chamber, respectively. The culture medium was renewed every 5 days. Microfluidic chips were placed in Petri dishes containing 0.1% EDTA (Sigma) and incubated at 37 °C in a 5% CO2 atmosphere. In the neuronal diodes, cortical axons entered the microchannels and reached the hippocampi chamber in around 4–5 days. In both the monoculture and coculture systems, cells were cultured for 3 weeks to allow high dendrites and synapse density and intense electrical firing.
Cells were treated with caspase inhibitors and/or Aβ1–42 at 20 days in vitro. For the hippocampal monocultures, the culture medium was removed and replaced by fresh medium optionally containing 10 nM Aβ1–42 oligomers or monomers, with or without caspase inhibitors. After 6 h, cells were fixed, permeabilized, and subjected to immunolabelling. For cortico-hippocampal compartmentalized cocultures, the medium of the input chamber (cortical) was replaced by fresh medium optionally containing 100 nM Aβ1–42 oligomers or monomers, whereas the medium of the output (hippocampal) chamber was replaced by fresh medium optionally containing, or not, caspases inhibitors. […]
Immunostaining was performed directly in microfluidic chambers as described [38]. […] Images were analyzed using ImageJ software (NIH, Bethesda, MD, USA).
Synaptic disconnection was assessed as described [39] with slight modifications. Briefly, in hippocampal monocultures, synaptic disconnection was assessed through fluorescence microscopy by counting phalloidin clusters affixed to MAP2 and Bassoon. In cortico-hippocampal compartmentalized cocultures, synaptic disconnection was assessed by counting α-Synuclein presynaptic clusters affixed to MAP2-positive hippocampal dendrites. […] The images were similarly processed with ImageJ software before being used for quantification: the brightness/contrast of all control images were optimized manually to eliminate the background and to maximize the signal. The means of the minimum and maximum intensities were then calculated in the control condition and these settings were applied to all images. The brightness/contrast of all images was optimized manually to eliminate the background and maximize the intensity of the signal. α-synuclein/ MAP2 and Phalloidin/MAP2/Bassoon merges were then used for quantification. The number of spines was determined by counting individual clusters along ten dendritic regions (100 µm length each) in three independent experiments for every epitope. Only synapses detected on or near the neurites were included for analysis.

[7] = test system: Casp2-S1P-SREBP2 activation pathway in HEK 293 cells; experiment: Casp2-dependent S1P cleavage and SREBP2 activation in transfected HEK 293 cells (WB); details: 10 µM, 16 h
Description: To test SREBP processing, HEK 293 (ATCC® CRL-1573) cells were plated at a density of 0.5 × 10^5 per well (6-well plates). The next day, 1 μg of each cDNAs were transfected using lipofectamine 3000 (Thermo Fisher Scientific, MA) according to the manufacturer’s instruction. cDNAs used were empty vector (EV), Casp2-HA, PIDD-Flag, RAIDD-His, Myc-S1P, and V5-SREBP2. After 4 h, cells were incubated in DMEM/F12 medium supplemented with indicated Casp2 inhibitors (10 μM) for 16 h. Whole-cell lysates were prepared in lysate buffer (150 mM Tris-HCl, pH 7.4, 10% sodium-deoxycholate, 100 mM NaCl, 100 mM EDTA, 100 mM PMSF, 200 mM NaF, 100 mM Na3VO4, and a mixture of protease inhibitors). […] Equal quantities of proteins were subjected to immunoblot (WB) analysis with anti-Flag (#F7425 Sigma-Aldrich), anti-HA (#1867431, Roche), anti-Casp2 (#ALX-804-356, 11B4, Enzo Life Sciences), anti-V5 monoclonal antibody (#13202, Cell Signaling Technology), anti-Casp3 (#9661, #9662, #9664, Cell Signaling Technologies), and anti-HSP90 (#sc-101494, Santa Cruz Technologies).
HEK 293 cells were transfected with indicated plasmids in order to overexpress SREBP2, S1P, RAIDD, PIDD1, and Casp-2. […] HEK 293 cells were transfected with the indicated plasmids. […] Then, whole cell extracts (WCL) were prepared and subjected to WB analysis to detect Casp2 (through HA tag), RAIDD (through 6HIS tag), and PIDD1, PIDD1-C, PIDD1-CC (through Flag tag).

[8] = 30 min preincubation, 0.2 nM Caspase-2, 25 µM Ac-VDVAD-AMC, read-out: Enzyme assays Casp2 IC50
[9] = reversible competitive inhibitors, Lineweaver-Burk, read-out: Enzyme assays Casp3 Ki (converted)
[10] = 30 min preincubation, 0.1 nM Caspase-3, 10 µM Ac-DEVD-AMC, read-out: Enzyme assays Casp3 IC50 (converted)
[11] = reversible competitive inhibitors, Lineweaver-Burk, read-out: Enzyme assays Casp2 Ki
[12] = irreversible inhibitors, progress curve method

CC(=O)N[C@H](C(=O)N[C@@H](CC(=O)O)C(=O)N[C@H](C(=O)N1CC[C@H](CC(C)(C)C)[C@@H]1C(=O)N[C@H]1CC(=O)OC1O)C(C)C)C(C)C (stereo partly shown) [h33, reference compound]
IC50 [1, 8]: 11 nM | Ki [2, 9]: 6510 nM | effect against vincristine-induced cell death [3]: showed cytoprotective effect | IC50 [4, 10]: 4570 nM | Ki [5, 11]: 10.9 nM | Ki ratio (Casp3/Casp2) [5]: 597

Aβ1–42 oligomers: oligomers of human β-amyloid1-42 peptide [reference compound]
decrease in spine density [6]: 50%

COC(=O)C[C@H](NC(=O)[C@H](C)NC(=O)[C@@H](NC(=O)OCc1ccccc1)C(C)C)C(=O)CF [z-VAD(Ome)-fmk] (Cbz-Val-Ala-Asp(OMe)-CH2F)
inhibition of vincristine-induced cell death [3]: more than 80%

CC(=O)NC(C(=O)NC(CC(=O)O)C(=O)NC(C(=O)N1CCC(c2ccccc2)C1C(=O)NC1CC(=O)OC1O)C(C)C)C(C)C (stereo not shown) [k33, reference compound]
IC50 [1]: 178 nM | Ki [2, 9]: 2770 nM | IC50 [4]: 1960 nM | Ki [5, 11]: 90.5 nM

Q-LETD-OPh
effect against vincristine-induced cell death [3]: no effect

CC(C)[C@H](NC(=O)c1ccc2ccccc2n1)C(=O)N[C@@H](CC(=O)O)C(=O)N[C@H](C(=O)N[C@@H](C)C(=O)NC(CC(=O)O)C(=O)COc1c(F)cccc1F)C(C)C (stereo partly shown) [Δ2Me-TRP601, Quinolin-2-carbonyl-VDVAD-CH2-O(2,6F2)Ph, reference compound] (Quinaldoyl-VDVA-X1)
Casp3 k3 [2, 12]: 1,85 ms^−1 | Casp3 k3/KI [2, 12]: 1 613 405 M^−1 s^−1 | KI (inactivation) [2, 12]: 1.17 nM | IC50 [4]: 0.31 ± 0.01 nM | Casp2 k3 [5, 12]: 8,08 ms^−1 | Casp2 k3/KI [5, 12]: ~ 1,586,020 M^−1 s^−1 and 1 586 020 M^−1 s^−1 | KI (inactivation) [5, 12]: 5.49 nM | S1P cleavage [7]: abolished | SREBP2 activation [7]: abolished | impact on RAIDD, PIDD1, and Casp2 expression [7]: no significant impact

CC(=O)N[C@H](C(=O)N[C@@H](CC(=O)O)C(=O)N[C@H](C(=O)N1CC[C@@H](OC(C)C)[C@@H]1C(=O)N[C@H]1CC(=O)OC1O)C(C)C)C(C)C (stereo partly shown) [c33, reference compound]
IC50 [1]: 271 nM | Ki [2, 9]: 2440 nM | IC50 [4]: 6720 nM | Ki [5, 11]: 122 nM

CC(=O)N[C@H](C(=O)N[C@@H](CC(=O)O)C(=O)N[C@H](C(=O)N1CCc2ccc(C)cc2[C@@H]1C(=O)N[C@H]1CC(=O)OC1O)C(C)C)C(C)C (stereo partly shown) [q33, reference compound]
IC50 [1, 8]: 15 nM | Ki [2, 9]: 2370 nM | effect against vincristine-induced cell death [3]: showed cytoprotective effect | IC50 [4, 10]: 2540 nM | Ki [5, 11]: 24 nM | Ki ratio (Casp3/Casp2) [5]: 94.5

CC(C)C(NC(=O)c1ccc2ccccc2n1)C(=O)NC(CCC(=O)O)C(=O)COc1c(F)cccc1F (stereo not shown) [Q-VE-OPh]
inhibition of vincristine-induced cell death [3]: not

CC(C)[C@H](NC(=O)c1ccc2ccccc2n1)C(=O)N[C@@H](CC(=O)O)C(=O)N[C@H](C(=O)N1CC[C@H](CC(C)(C)C)[C@H]1C(=O)NC(CC(=O)O)C(=O)COc1c(F)cccc1F)C(C)C (stereo partly shown) [LJ3b]
Casp3 k3 [2, 12]: 0.8 ± 6 × 10^−5 ms^−1 | Casp3 k3/KI [2, 12]: 9 M⁻¹ s⁻¹ | Ki ([2]; irreversible inhibitors, progress curve method, read-out: Casp3 KI): 84200 nM | k3/Ki ratio against Casp2, times lower than the one of the a isomer (LJ2a or LJ3a) [5]: more than 2000 times | Casp2 k3/KI [5, 12]: 823 M⁻¹ s⁻¹ | Ki ([5]; irreversible inhibitors, progress curve method, read-out: Casp2 KI): 8540 ± 300 nM
